Results taken from patent publication US5679321A, “Sialic acid/fucose based medicaments” (Glycomed Incorporated, priority 1995, dated 1997).

Tests used:
[1] = tested on: neutrophil migration to the peritoneal cavity; assay: murine thioglycollate induced peritonitis model; type: in vivo, female Swiss Webster mice; settings: FIG. 7; for inhibition of neutrophil migration into the peritoneum: compound in PBS by tail vein, thioglycollate intraperitoneally, cells counted after three hours
Description: The efficaciousness of GM 1221, and GM 1398 was shown using a murine thioglycollate induced peritonitis model. The assay materials and methods are known in the art, or are generally described by Lewinsohn, D. et al., J. Immun., 138:4313-4321 (1987), or Watson, S. et.al., Nature 349:164-166 (1991).
This assay measures the abili:ty of the compounds to inhibit neutrophil migation to the peritoneal cavity, the migration being initiated by the presence of thioglycollate in the peritoneal cavity. Thioglycollate is a known and effective inflammatory agent that causes neutrophil migration into the mouse peritoneum when it is administered intraperitoneally. Lewinsohn, D. et al., J. Immun. (1987) 138:4313-4321.
Briefly, female Swiss Webster mice weighing about 25 grams were injected in the tail vein with 200 ul of phosphate buffered saline (PBS) with or without the appropriate compound. The pH of the solutions was adjusted to neutrality by the addition of either NaOH or HCL and sterilized by filtration through a 0.2 u filter.
Immediately following injection with the appropriate compound or PBS, the mice were injected intraperitoneally with 1 ml of thioglycollate medium prepared as described by the manufacturer, BBL. Three hours following injection of the thioglycollate solution the mice were sacrificed by CO2 asphyxiation, and the number of cells in the peritoneum removed by lavage with 5 ml of heparinized (5U/ml) 0.9%. sodium chloride solution containing 0.1% bovine serum albumin. Cell number was determined using a Coulter Counter. The cells were prepared for counting by diluting the lavage fluid with 1:50 of a commercial physiological isotonic solution, Isoton II, and the cells lysed by adding S/P Lysing and Hemoglobin Reagent (1:100 final dilution). Cell nuclei were counted in a sized window with lower and upper limits set at 3.9 and 5.7 um, respectively.

L-selectin IgG chimera = molecular target: T1, L-selectin IgG chimera (Homo sapiens, UniProt P14151); assay: ELISA: blocking of L-selectin IgG chimera binding to 2,3sLex glycolipid
T1 sequence (P14151 39-332 limits assumed): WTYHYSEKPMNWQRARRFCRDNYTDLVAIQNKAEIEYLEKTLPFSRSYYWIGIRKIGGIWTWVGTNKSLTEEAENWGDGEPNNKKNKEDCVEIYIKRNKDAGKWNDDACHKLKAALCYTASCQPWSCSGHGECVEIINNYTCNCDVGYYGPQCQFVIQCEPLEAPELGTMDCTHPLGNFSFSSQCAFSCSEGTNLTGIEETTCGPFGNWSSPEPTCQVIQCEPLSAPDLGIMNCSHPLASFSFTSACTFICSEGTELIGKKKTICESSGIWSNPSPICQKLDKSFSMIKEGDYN
Description: (§1) An ELISA assay was employed that uses recombinant fusion proteins composed of extracellular portions of the human selectins joined to human immunoglobulin heavy chain CH3, CH2, and hinge regions. See, for example, Walz et al., Science (1990) 250:1132; Aruffo et al., Cell (1991) 67:35; Aruffo et al., Proc. Natl. Acad. Sci. USA (1992) 89:2292. The assay is well known in the art, and generally consists of the following three steps:
(§2) I. 2,3sLex glycolipid (25 picomole/well) was transferred into microtiter wells as solutions and then evaporated off. Excess, which remained unattached, was washed off with water. The wells were then blocked with 5% BSA at room temperature for an hour and then washed with PBS containing 1 mM calcium.
II. […]
(§3) The positive control is the signal produced by the soluble receptor when it is allowed to react with 2,3sLex glycolipid in the microtiter wells in the absence of any inhibitor. […] The signal produced by the receptor that had been previously treated with an inhibitor (recorded as O.D.), was divided by the signal produced by the positive control and multiplied by 100 to calculate the % receptor bound to the well, or as expressed in the figures, the per cent of control binding. […]

E-selectin IgG chimera = assay: ELISA: blocking of E-selectin IgG chimera binding to 2,3sLex glycolipid; parameters: species or system human; settings: FIG. 4; several concentrations
Description: as §1, §2
II. […]
as §3

## CC(OCCCCCCOC1O[C@@H](C)[C@@H](O)[C@@H](O)[C@@H]1O)C(=O)O (stereo partly drawn) [GM 1221]
[1]
  inhibition of neutrophil migration into the peritoneum: inhibit neutrophil migration into the peritoneum
L-selectin IgG chimera; FIG. 6, all four concentrations of the compound tested
  inhibitory activity on L-selectin binding at all four concentrations tested: significant inhibitory activity

## CC(=O)NC1C(O)CC(OCCCCCCOC2OC(C)C(O)C(O)C2O)(C(=O)O)OC1C(O)C(O)CO [GM 1398, 1-O-α-Neu5Ac-(6-O-α-L-Fucopyranosyl)-Hexane]
[1]
  inhibition of neutrophil migration into the peritoneum: inhibit neutrophil migration into the peritoneum
[1]; relative to GM 1221
  more neutrophil migration inhibited than GM 1221: about 30%
E-selectin IgG chimera
  inhibition of E-selectin binding to 2,3sLex glycolipid (per cent of control binding): inhibit E-selectin binding
L-selectin IgG chimera; FIG. 5 and FIG. 6, several concentrations
  inhibition of L-selectin binding to 2,3sLex glycolipid (per cent of control binding): inhibit L-selectin binding in a concentration dependent manner
